Experimental findings from US9976141B2, “Compositions and methods for inhibiting gene expression of Hif2alpha” (Arrowhead Madison Inc., priority 2015, dated 2018) are described below.

Values joined by “and” are separate entries in the source; they are usually repeats but may differ in a detail not shown here. Equal values may be shown once.

Series [1] deals with human (tumor) Hif2α (EPAS1) mRNA. The experiment in a line: Hif2α expression in RCC tumor bearing mice after single injection of RGD targeted conjugates, 72 h, RT-qPCR (Table 11). It is filed as in vivo. On the procedure:
Female athymic nude mice were anesthetized with ˜3% isoflourane and placed in the right lateral decubitus position. A small, 0.5-1 cm, longitudinally abdominal incision in the left flank was made. Using a moist cotton swab, the left kidney was lifted out of the peritoneum and gently stabilized. Just before injection, a 1.0 ml syringe was filled with the cell/Matrigel mixture and a 27 gauge needle catheter was attached to the syringe tip. The filled syringe was then attached to a syringe pump (Harvard Apparatus, model PHD2000) and primed to remove air. The tip of a 27-gauge needle catheter attached to a syringe was inserted just below the renal capsule near the caudal pole and the tip of the needle was then carefully advanced cranially along the capsule 3-4 mm. A 10 μl aliquot of 2:1 (vol:vol) cell/matrigel mixture containing about 300,000 cells was slowly injected into the kidney parenchyma using a syringe pump. The needle was left in the kidney for 15-20 seconds to ensure the injection was complete. The needle was then removed from the kidney and a cotton swab was placed over the injection site for 30 seconds to prevent leakage of the cells or bleeding. The kidney was then gently placed back into the abdomen and the abdominal wall was closed. Serum was collected every 7-14 days after implantation to monitor tumor growth using a commercial SEAP assay kit. For most studies, tumor mice were used 5-6 weeks after implantation, when tumor measurements were typically around 4-8 mm.
In preparation for quantitative PCR, total RNA was isolated from tissue samples homogenized in TriReagent (Molecular Research Center, Cincinnati, Ohio) following the manufacturer's protocol. Approximately 500 ng RNA was reverse-transcribed using the High Capacity cDNA Reverse Transcription Kit (Life Technologies). For human (tumor) Hif2α (EPAS1) expression, pre-manufactured TaqMan gene expression assays for human Hif2α (Catalog #4331182) and CycA (PPIA) Catalog #: 4326316E) were used in biplex reactions in triplicate using TaqMan Gene Expression Master Mix (Life Technologies) or VeriQuest Probe Master Mix (Affymetrix). For human (tumor) VegFa (VEGFA) expression, pre-manufactured TaqMan gene expression assays for human VegFa (Catalog #4331182, Assay ID: Hs00900055) and CycA (Part#: 4326316E) were used in biplex reactions in triplicate using TaqMan Gene Expression Master Mix (Life Technologies) or VeriQuest Probe Master Mix (Affymetrix). Quantitative PCR was performed by using a 7500 Fast or StepOnePlus Real-Time PCR system (Life Technologies). The ΔΔCT method was used to calculate relative gene expression.
RGD targeted HiF2α-RNAi trigger delivery polymer conjugates were formed using polymer 126, 100A, or 006. The RNAi trigger, μg indicates the quantity of trigger reacted with polymer. The polymer was modified with the indicated RGD mimic and PEG modifying agents as described above. Kidney RCC tumor-bearing mice were generated as described and treated with a single tail vein injection of isotonic glucose (G1) or the indicated Hif2α RNAi trigger-delivery polymer conjugate. Mice were euthanized 72 h (day 4) after injection and total RNA was prepared from kidney tumor using Trizol reagent following manufacturer's recommendation. Relative HiF2α mRNA levels were determined by RT-qPCR as described and compared to mice treated with delivery buffer (isotonic glucose) only (Table 11).

For series [2] the test system is unchanged. Kind of series: Hif2α knockdown in orthotopic RCC tumor bearing mice, single injection of RNAi trigger-delivery polymer conjugate, RT-qPCR (Table 7). It is filed as in vivo. As to conditions: single tail vein injection, relative to isotonic glucose. A digest of the protocol:
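Female athymic nude mice carried orthotopic A498-SEAP ccRCC kidney tumours, used 5–6 weeks after implantation. They received one tail-vein injection of RGD-targeted Hif2α RNAi trigger–polymer conjugate or isotonic glucose. Tumour Hif2α mRNA was measured by TaqMan RT-qPCR normalised to CycA (ΔΔCT) and expressed relative to glucose-treated mice.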
A general note: Quantitative PCR measures a nucleic acid by following its amplification.

As for “AD01214 (antisense TUUCAUGAAAUCGUUACGUTT; sense ACGUAACGAUUUCAUGAAAT; Hif2alpha RNAi agent antisense strand; modified_base 2,4,6,8,10,12,14,16,18 /mod_base = “2′-deoxy-2′-fluoro corresponding nucleoside”; modified_base 3,5,7,9,11,13,15,17,19 /mod_base = “2′-O-methyl corresponding nucleoside”; modified_base 21 /mod_base = “5′-phosphorothioate corresponding nucleotide”; Hif2alpha RNAi agent sense strand; modified_base 1,3,5,7,9,11,13,15,17,19 /mod_base = “2′-deoxy-2′-fluoro corresponding nucleoside”; modified_base 2,4,6,8,10,12,14,16,18 /mod_base = “2′-O-methyl corresponding nucleoside”; modified_base 20 /mod_base = “3′-3′-linked nucleotide”; modified_base 1 /mo)”, the “Relative Expression day 4 (Hif2α)” value in series [1] (trigger 80 μg, polymer 126 280 μg, TFF, RGD-PEG8-HyNic 0.5×, PEG12-FCit-PABC-PNP) was 0.489; in series [1] (trigger 80 μg, polymer 126 280 μg, RGD-PEG8-ACit-PABC-PNP 0.4×, PEG6-ACit-PABC-PNP), 0.360; in series [1] (trigger 80 μg, polymer 126 280 μg, RGD-PEG8-ACitFP-NHS 1×, PEG6-ACit-PABC-PNP), 0.288; in series [1] (trigger 80 μg, polymer 126 280 μg, RGD-PEG8-HyNic 0.5×, PEG12-FCitFP-TFP) it was 0.210; in series [1] (trigger 112.5 μg, polymer 006 300 μg, RGD-PEG8-HyNic, PEG12-ACit-PABC-PNP), 0.357; in series [1] (trigger 112.5 μg, polymer 100A 375 μg, TFF, RGD-PEG15-FCitFP-TFP 0.5×, no. 10.8, PEG12-ACit-PABC-PNP), 0.193. Besides, the “Relative Expression day 4 (Hif2α)” value in series [1] (trigger 112.5 μg, polymer 100A 375 μg, TFF, RGD-PEG15-FCitFP-TFP 1×, no. 16.1, PEG12-ACit-PABC-PNP) is listed as 0.182; in series [1] (trigger 112.5 μg, polymer 100A 375 μg, TFF, RGD-PEG15-FCitFP-TFP 2×, no. 29.0, PEG12-ACit-PABC-PNP) it was 0.182; in series [1] (trigger 112.5 μg, polymer 100A 375 μg, TFF, RGD-PEG19-FCitFP-TFP 0.5×, no. 10.7, PEG12-ACit-PABC-PNP), 0.163; in series [1] (trigger 112.5 μg, polymer 100A 375 μg, TFF, RGD-PEG19-FCitFP-TFP 1×, no. 18.5, PEG12-ACit-PABC-PNP), 0.114; in series [1] (trigger 112.5 μg, polymer 100A 375 μg, TFF, RGD-PEG19-FCitFP-TFP 2×, no. 31.1, PEG12-ACit-PABC-PNP) it was 0.182; in series [1] (trigger 112.5 μg, polymer 100A 375 μg, TFF, RGD-PEG20-FCitFP-TFP 0.125×, no. 1.9, PEG12-ACit-PABC-PNP), 0.169. In addition, the “Relative Expression day 4 (Hif2α)” value was 0.168 in series [1] (trigger 112.5 μg, polymer 100A 375 μg, TFF, RGD-PEG20-FCitFP-TFP 0.25×, no. 3.4, PEG12-ACit-PABC-PNP); 0.130 in series [1] (trigger 112.5 μg, polymer 100A 375 μg, TFF, RGD-PEG20-FCitFP-TFP 0.5×, no. 6.6, PEG12-ACit-PABC-PNP); 0.121 in series [1] (trigger 112.5 μg, polymer 100A 375 μg, TFF, RGD-PEG20-FCitFP-TFP 1×, no. 12.7, PEG12-ACit-PABC-PNP); 0.135 in series [1] (trigger 112.5 μg, polymer 100A 375 μg, TFF, RGD-PEG20-FCitFP-TFP 1.5×, no. 20.3, PEG12-ACit-PABC-PNP); 0.195 in series [1] (trigger 112.5 μg, polymer 100A 375 μg, RGD-PEG19-FCitFP-TFP 1×, PEG12-ACit-PABC-PNP); 0.148 and 0.188 in series [1] (trigger 112.5 μg, polymer 100A 375 μg, RGD-PEG19-FCitFP-TFP 1×, PEG12-FCitFP-TFP). The “Relative Expression day 4 (Hif2α)” value in series [1] (trigger 115 μg, polymer 100A 375 μg, RGD-PEG8-HyNic 0.5×, PEG12-FCitFP-TFP) turned out to be 0.258. The “Relative Expression day 4 (Hif2α mRNA in kidney tumor)” value is 0.29 in series [2] (RNAi trigger 80 μg, polymer 126 400 μg) and 0.36 in series [2] (RNAi trigger 112.5 μg, polymer 006 300 μg).
